Test results: article PMC5421785, “Citrullination only infrequently impacts peptide binding to HLA class II MHC” (PLoS ONE, 2017)
Where two headings read alike, the source gives them in different places. Square brackets hold non-standard residues; d marks the D form. Ends that are not written are not given here. Peptide text beside a SMILES is read from it. Cit = NC(=O)NCCC[C@H](N)C(=O)O

Columns and labels:
[1] = target: T1, HLA-DRB1*04:01 (Homo sapiens, UniProt P01903+P01911, A100K/A169T/F76Y/I96L/K127E/L162R/M171V/N62H/P40V/Q125Y/R42H/S133A/S149N/S66Y/V115G/V209L/W38E); test: HLA class II peptide binding, inhibition of radiolabeled peptide binding to purified MHC
T1 construct: EBV transformed homozygous cell lines were used as sources of MHC molecules; endogenous in cells; host or cells: EBV transformed homozygous cell lines

[2] = target: T2, HLA-DRB1*01:01 (Homo sapiens, UniProt P01903+P01911, A100R/D57E/F55L/F60I/F76Y/I96L/L162R/M171V/P40L/Q125E/R42F/V115G/Y59C); test: as above
T2 construct: EBV transformed homozygous cell lines were used as sources of MHC molecules; endogenous in cells; host or cells: EBV transformed homozygous cell lines

[3] = wild-type (unmodified Arg) 15-mer peptide, purified HLA-DRB1*04:01, read-out: DRB1*04:01 binding capacity, WT peptide (IC50 nM)
[4] = wild-type (unmodified Arg) 15-mer peptide, purified HLA-DRB1*01:01, read-out: DRB1*01:01 binding capacity, WT peptide (IC50 nM)
[5] = citrullinated 15-mer peptide (X = citrulline), purified HLA-DRB1*04:01, read-out: DRB1*04:01 binding capacity, Cit peptide (IC50 nM)
[6] = citrullinated 15-mer peptide (X = citrulline), purified HLA-DRB1*01:01, read-out: DRB1*01:01 binding capacity, Cit peptide (IC50 nM)
[7] = read-out: DRB1*04:01 binding capacity, WT peptide (IC50 nM)
[8] = read-out: DRB1*01:01 binding capacity, WT peptide (IC50 nM)

IC50 [1, 3] [nM]	IC50 [2, 4] [nM]	Molecule	other results
> 40000	1280	ERGFPGLPGPSGEPG [Collagen 991 WT]	–
> 40000	11200	GPRGERGFPGERGSP [Collagen 696 WT]	–
> 40000	810	GLPGAPGLRGLPGKD [Collagen 621 WT]	–
> 40000	851	LPGARGLTGRPGDAG [Collagen 556 WT]	–
> 40000	422	RGQPGVMGFPGPKGA [Collagen 596 WT]	–
–	–	CC[C@H](C)[C@H](NC(=O)[C@@H](NC(=O)[C@H](CCC(N)=O)NC(=O)CNC(=O)[C@H](CC(=O)O)NC(=O)[C@H](CCCNC(N)=O)NC(=O)[C@@H](NC(=O)[C@H](CCC(=O)O)NC(=O)[C@@H](NC(=O)[C@@H](NC(=O)[C@H](CCCCN)NC(=O)[C@@H](NC(=O)[C@H](CC(C)C)NC(=O)[C@H](CC(C)C)NC(=O)[C@@H](N)[C@@H](C)O)[C@@H](C)CC)[C@@H](C)O)C(C)C)[C@@H](C)O)C(C)C)C(=O)O [TLLIKTVETXDGQVI] (H-TLLIKTVET[Cit]DGQVI-OH)	IC50 [1, 5]: 2260 nM; IC50 [2, 6]: 2120 nM
7160	7.9	CC[C@H](C)[C@H](NC(=O)CNC(=O)[C@H](CCCNC(=N)N)NC(=O)[C@H](CCC(N)=O)NC(=O)CNC(=O)[C@H](C)NC(=O)[C@H](CC(C)C)NC(=O)CNC(=O)[C@H](CCC(N)=O)NC(=O)[C@@H]1CCCN1C(=O)CNC(=O)[C@@H]1CCCN1)C(=O)N[C@H](C(=O)NCC(=O)N[C@@H](CC(C)C)C(=O)O)C(C)C [Collagen 971 WT]	–
–	–	CC(C)C[C@H](NC(=O)CNC(=O)[C@@H]1CCCN1C(=O)[C@H](Cc1ccccc1)NC(=O)CNC(=O)[C@H](CCCNC(N)=O)NC(=O)[C@@H](N)CCC(=O)O)C(=O)N1CCC[C@H]1C(=O)NCC(=O)N1CCC[C@H]1C(=O)N[C@@H](CO)C(=O)NCC(=O)N[C@@H](CCC(=O)O)C(=O)N1CCC[C@H]1C(=O)NCC(=O)O [EXGFPGLPGPSGEPG] (H-E[Cit]GFPGLPGPSGEPG-OH)	IC50 [1, 5]: > 40000 nM; IC50 [2, 6]: 2210 nM
–	–	CSCC[C@H](NC(=O)[C@H](CCC(=O)O)NC(=O)[C@H](CCC(=O)O)NC(=O)[C@H](CCC(N)=O)NC(=O)[C@H](CC(C)C)NC(=O)[C@H](CCCCN)NC(=O)[C@H](CCC(=O)O)NC(=O)[C@@H](N)CCCNC(N)=O)C(=O)N[C@@H](CC(C)C)C(=O)N[C@@H](CCC(N)=O)C(=O)N[C@@H](CCCNC(=N)N)C(=O)N[C@@H](CCC(=O)O)C(=O)N[C@@H](CCC(=O)O)C(=O)N[C@@H](C)C(=O)N[C@@H](CCC(=O)O)C(=O)O [XEKLQEEMLQREEAE] (H-[Cit]EKLQEEMLQREEAE-OH)	IC50 ([1]; citrullinated 15-mer (X), purified MHC, inhibition of radiolabeled peptide binding, dash = IC50 >40,000 nM, read-out: DRB1*04:01 binding capacity, Cit peptide (IC50 nM)): > 40000 nM; IC50 ([2]; citrullinated 15-mer (X), purified MHC, inhibition of radiolabeled peptide binding, dash = IC50 >40,000 nM, read-out: DRB1*01:01 binding capacity, Cit peptide (IC50 nM)): 26100 nM
–	–	SSRSYVTTSTRTYSL [Vimentin 26 WT]	IC50 [1, 7]: 245 nM; IC50 [2, 8]: 70 nM
> 40000	> 40000	GAEGPPGPQGLAGQR [Collagen 966 WT]	–
–	–	NDKARVEVERDNLAE [Vimentin 166 WT]	IC50 [1, 7]: 884 nM; IC50 [2, 8]: 524 nM
–	–	CC[C@H](C)[C@H](NC(=O)[C@H](CC(=O)O)NC(=O)[C@@H](NC(=O)[C@@H](NC(=O)[C@@H]1CCCN1C(=O)[C@H](CC(C)C)NC(=O)[C@H](CCCNC(=N)N)NC(=O)[C@H](CO)NC(=O)[C@@H](NC(=O)[C@H](CCCCN)NC(=O)[C@H](CCC(N)=O)NC(=O)[C@H](CO)NC(=O)[C@H](CCCNC(N)=O)NC(=O)[C@H](Cc1ccc(O)cc1)NC(=O)[C@@H](N)CCC(=O)O)[C@@H](C)O)[C@@H](C)CC)[C@@H](C)CC)C(=O)O [EYXSQKTSRLPIIDI] (H-EY[Cit]SQKTSRLPIIDI-OH)	IC50 ([1]; citrullinated peptide as listed (X at Cit position), read-out: DRB1*04:01 binding capacity Cit peptide (IC50 nM)): 473 nM; IC50 ([1]; value of the wild-type (non-citrullinated) counterpart of the listed peptide, read-out: DRB1*04:01 binding capacity WT peptide (IC50 nM)): 314 nM; IC50 ([2]; citrullinated peptide as listed (X at Cit position), read-out: DRB1*01:01 binding capacity Cit peptide (IC50 nM)): 5.9 nM; IC50 ([2]; value of the wild-type (non-citrullinated) counterpart of the listed peptide, read-out: DRB1*01:01 binding capacity WT peptide (IC50 nM)): 14 nM
